Reference: ChEMBL document CHEMBL3091361, “Synthesis, structure elucidation and in vitro anticancer activities of novel derivatives of diethyl (2E)-2-[(2E)-(1-arylimidazolidin-2-ylidene)hydrazono]succinate and ethyl (4-oxo-8-aryl-4,6,7,8-tetrahydroimidazo[2,1-c][1,2,4]triazin-3-yl)acetate” (Bioorg Med Chem, 2013)

Columns and labels:
[1] = Cytotoxicity against human MM1R cells at 50 ug/ml after 24 hrs by BrdU incorporation assay relative to control; type: functional; conditions: MM.1R, read-out: GI
T47D [2] = experiment: Cytotoxicity against human T47D cells at 50 ug/ml after 72 hrs by BrdU incorporation assay relative to control; type: functional; conditions: read-out: GI
HeLa [3] = experiment: Cytotoxicity against human HeLa cells at 50 ug/ml after 24 hrs by BrdU incorporation assay relative to control; type: functional; conditions: read-out: GI
[4] = Cytotoxicity against human MM1R cells at 50 ug/ml after 72 hrs by BrdU incorporation assay relative to control; type: functional; conditions: MM.1R, read-out: GI
[5] = Cytotoxicity against human HSF cells at 50 ug/ml after 72 hrs by BrdU incorporation assay relative to control; type: cell-based; conditions: read-out: GI
[6] = Cytotoxicity against human HSF cells at 50 ug/ml after 48 hrs by BrdU incorporation assay relative to control; type: cell-based; conditions: read-out: GI
[7] = Cytotoxicity against human MM1S cells at 50 ug/ml after 72 hrs by BrdU incorporation assay relative to control; type: functional; conditions: MM1.S, read-out: GI
[8] = Cytotoxicity against human MM1S cells at 50 ug/ml after 24 hrs by BrdU incorporation assay relative to control; type: functional; conditions: MM1.S, read-out: GI
HeLa [9] = experiment: Cytotoxicity against human HeLa cells at 50 ug/ml after 72 hrs by BrdU incorporation assay relative to control; type: functional; conditions: read-out: GI
[10] = Cytotoxicity against human MM1S cells at 50 ug/ml after 48 hrs by BrdU incorporation assay relative to control; type: functional; conditions: MM1.S, read-out: GI
[11] = Cytotoxicity against human HSF cells at 50 ug/ml after 24 hrs by BrdU incorporation assay relative to control; type: cell-based; conditions: read-out: GI
T47D [12] = experiment: Cytotoxicity against human T47D cells at 50 ug/ml after 48 hrs by BrdU incorporation assay relative to control; type: functional; conditions: read-out: GI
[13] = Cytotoxicity against human MM1R cells at 50 ug/ml after 48 hrs by BrdU incorporation assay relative to control; type: functional; conditions: MM.1R, read-out: GI
HeLa [14] = experiment: Cytotoxicity against human HeLa cells at 50 ug/ml after 48 hrs by BrdU incorporation assay relative to control; type: functional; conditions: read-out: GI
T47D [15] = experiment: Cytotoxicity against human T47D cells at 50 ug/ml after 24 hrs by BrdU incorporation assay relative to control; type: functional; conditions: read-out: GI
HeLa [16] = experiment: Induction of necrosis in human HeLa cells at 50 ug/ml after 24 hrs by propidium iodide/Hoechst 33342 staining-based confocal microscopy (reference value: 5%); type: functional
T47D [17] = experiment: Induction of apoptosis in human T47D cells at 50 ug/ml after 48 hrs by propidium iodide/Hoechst 33342 staining-based confocal microscopy (reference value: 2%); type: functional
[18] = Induction of necrosis in human HSF cells at 50 ug/ml after 24 hrs by propidium iodide/Hoechst 33342 staining-based confocal microscopy (reference value: 2%); type: cell-based
HeLa [19] = experiment: Induction of necrosis in human HeLa cells at 50 ug/ml after 48 hrs by propidium iodide/Hoechst 33342 staining-based confocal microscopy (reference value: 10%); type: functional
T47D [20] = experiment: Induction of necrosis in human T47D cells at 50 ug/ml after 72 hrs by propidium iodide/Hoechst 33342 staining-based confocal microscopy (reference value: 10%); type: functional
[21] = Induction of necrosis in human HSF cells at 50 ug/ml after 72 hrs by propidium iodide/Hoechst 33342 staining-based confocal microscopy (reference value: 5%); type: cell-based
HeLa [22] = experiment: Induction of apoptosis in human HeLa cells at 50 ug/ml after 48 hrs by propidium iodide/Hoechst 33342 staining-based confocal microscopy (reference value: 5%); type: functional
[23] = Induction of apoptosis in human HSF cells at 50 ug/ml after 24 hrs by propidium iodide/Hoechst 33342 staining-based confocal microscopy (reference value: 2%); type: cell-based
HeLa [24] = experiment: Induction of apoptosis in human HeLa cells at 50 ug/ml after 72 hrs by propidium iodide/Hoechst 33342 staining-based confocal microscopy (reference value: 5%); type: functional
T47D [25] = experiment: Induction of apoptosis in human T47D cells at 50 ug/ml after 24 hrs by propidium iodide/Hoechst 33342 staining-based confocal microscopy (reference value: 2%); type: functional
T47D [26] = experiment: Induction of necrosis in human T47D cells at 50 ug/ml after 24 hrs by propidium iodide/Hoechst 33342 staining-based confocal microscopy (reference value: 5%); type: functional
[27] = Induction of apoptosis in human HSF cells at 50 ug/ml after 48 hrs by propidium iodide/Hoechst 33342 staining-based confocal microscopy (reference value: 5%); type: cell-based
HeLa [28] = experiment: Induction of necrosis in human HeLa cells at 50 ug/ml after 72 hrs by propidium iodide/Hoechst 33342 staining-based confocal microscopy (reference value: 10%); type: functional
HeLa [29] = experiment: Induction of apoptosis in human HeLa cells at 50 ug/ml after 24 hrs by propidium iodide/Hoechst 33342 staining-based confocal microscopy (reference value: 2%); type: functional
T47D [30] = experiment: Induction of apoptosis in human T47D cells at 50 ug/ml after 72 hrs by propidium iodide/Hoechst 33342 staining-based confocal microscopy (reference value: 5%); type: functional
T47D [31] = experiment: Induction of necrosis in human T47D cells at 50 ug/ml after 48 hrs by propidium iodide/Hoechst 33342 staining-based confocal microscopy (reference value: 8%); type: functional
[32] = Induction of necrosis in human HSF cells at 50 ug/ml after 48 hrs by propidium iodide/Hoechst 33342 staining-based confocal microscopy (reference value: 4%); type: cell-based
[33] = Induction of apoptosis in human HSF cells at 50 ug/ml after 72 hrs by propidium iodide/Hoechst 33342 staining-based confocal microscopy (reference value: 5%); type: cell-based

SMILES | inhibition of growth at 50 µg/mL [1] | inhibition of growth at 50 µg/mL (T47D [2]) | inhibition of growth at 50 µg/mL (HeLa [3]) | inhibition of growth at 50 µg/mL [4] | inhibition at 72 h, 50 ug/ml [5] | inhibition at 48 h, 50 ug/ml [6] | inhibition of growth at 50 µg/mL [7] | inhibition of growth at 50 µg/mL [8] | inhibition of growth at 50 µg/mL (HeLa [9]) | inhibition of growth at 50 µg/mL [10] | inhibition at 24 h, 50 ug/ml [11] | inhibition of growth at 50 µg/mL (T47D [12]) | inhibition of growth at 50 µg/mL [13] | inhibition of growth at 50 µg/mL (HeLa [14]) | inhibition of growth at 50 µg/mL (T47D [15]) | other results
CCOC(=O)C/C(=N\N=C1/NCCN1c1ccc(C)cc1)C(=O)OCC | 75% | 80% | 5% | 95% | 80% | 80% | 85% | 55% | 50% | 70% | 70% | 75% | 90% | 45% | 50% | 
CCOC(=O)C/C(=N\N=C1/NCCN1c1cccc(Cl)c1)C(=O)OCC | 70% | 90% | 5% | 80% | 90% | 90% | 80% | 40% | 45% | 65% | 70% | 85% | 75% | 25% | 80% | 
CCOC(=O)C/C(=N\N=C1/NCCN1c1ccc(Cl)cc1)C(=O)OCC | 65% | 90% | 10% | 90% | 90% | 90% | 90% | 65% | 55% | 75% | 70% | 85% | 80% | 30% | 80% | 
CCOC(=O)C/C(=N\N=C1/NCCN1c1ccc(Cl)c(Cl)c1)C(=O)OCC | 70% | 100% | 50% | 80% | 90% | 90% | 90% | 70% | 60% | 80% | 70% | 95% | 80% | 50% | 80% | 
CCOC(=O)Cc1nnc2n(c1=O)CCN2c1ccccc1 | 80% | 85% | 20% | 90% | 50% | 50% | 80% | 25% | 75% | 30% | 25% | 80% | 85% | 75% | 40% | Activity (HeLa [16]): 20%; Activity (T47D [17]): 10%; Activity [18]: 25%; Activity (HeLa [19]): 75%; Activity (T47D [20]): 85%; Activity [21]: 50%; Activity (HeLa [22]): 15%; Activity [23]: 5%; Activity (HeLa [24]): 15%; Activity (T47D [25]): 5%; Activity (T47D [26]): 40%; Activity [27]: 5%; Activity (HeLa [28]): 80%; Activity (HeLa [29]): 10%; Activity (T47D [30]): 10%; Activity (T47D [31]): 80%; Activity [32]: 50%; Activity [33]: 8%
